Assay results reported in patent publication US11993561B2, “Expectorant compound, preparation method thereof and use thereof” (priority 2019, dated 2024).
Structures can show the parent of a compound that is named as a salt.

Experiments:
Format in all cases: in vivo
[1] = test system: ICR mice; assay: Acute toxicity test in mice administered intravenously; settings: ICR mice, intravenous
Method: (§1) Acute toxicity test of the compound of the present disclosure to mice administered intravenously
(§2) To test the acute toxicity of compounds of the present disclosure and comparative compounds, the following experiments were performed.
(§3) Compounds of the present disclosure were dissolved in water and administered to 5 ICR mice (mice of 5-week old, male, weighing 20 g±2 g). Intravenous administration was performed to determine the median lethal dose (LD50, mg/kg). Ambroxol hydrochloride was used as a control.

[2] = as above; settings: male, ICR, mouse, in vivo, iv
Method: as §1, §2, §3

[3] = test system: mice; assay: Expectorant test in mice using a phenol red method; settings: for Expectorant effect (secretion of phenol red in tracheal segment), result in words: comparison between groups; for Tracheal phenol red excretion: n=10, phenol red i.p. 1 h after dosing, sacrifice 0.5 h later
Method: In Vivo Pharmacodynamic Test—Expectorant Test in Mice Using a Phenol Red Method
In this example, the in vivo efficacy of the compounds I1, I4, I13 of the present disclosure and known compounds was tested.
Mice in the positive control group were give medicinal ammonium chloride and ambroxol hydrochloride orally, mice in the normal control group were given normal saline of the same amount, and mice the other groups were given corresponding drugs by gavage. The mice were administered by gavage once in the morning and afternoon (excluding ammonium chloride) 2 days before the experiment. After 1 hour of intragastric administration on the morning of the experiment, the mice were intraperitoneally injected with 0.5 ml of phenol red, and the mice were sacrificed 0.5 hours later. The tissue surrounding the organs was peeled off, and a section of the trachea from the thyroid cartilage to the branch of the trachea was cut off and placed in a test tube containing 2 ml of normal saline. The tube was shaken for 30 minutes, the trachea was discarded, and 0.2 ml of sodium hydroxide (1 mol/L) was added to each sample solution. The OD value was measured using a UV-visible spectrophotometer at a wavelength of 546 nm, and the absorbance values were converted into the phenol red content according to the phenol red standard curve.
The data was processed by PEMS medical statistical software.

[4] = gavage, dose 0.5 ml/kg (low dose)
[5] = gavage, dose 2.0 ml/kg (high dose)

Compound | LD50 compared with ambroxol hydrochloride, in words [1] | LD50 [2] | Expectorant effect (secretion of phenol red in tracheal segment), result in words [3] | Tracheal phenol red excretion [3, 4] | Tracheal phenol red excretion [3, 5] | Dose-effect relationship of expectorant effect ([3]; 0.5 vs 2.0 ml/kg) | Tracheal phenol red excretion ([3]; oral, dose 1.0 ml/kg)
Cl.Nc1c(Br)cc(Br)cc1CN[C@H]1CC[C@H](S)CC1 [I1, trans-4-[(2-amino-3,5-dibromo-benzyl)amino]-cyclohexanethiol hydrochloride] | much higher | 453 mg/kg | best effect | 1.225 ± 0.337 ΔΔ** mg/L | 1.610 ± 0.284 ΔΔ** mg/L |  | 
CN(Cc1cc(Br)cc(Br)c1N)[C@H]1CC[C@H](S)CC1.Cl [I4, trans-4-[(2-amino-3,5-dibromo-benzyl)-methyl-amino]-cyclohexanethiol hydrochloride] | much higher | 523 mg/kg |  | 1.083 ± 0.312 ΔΔ** mg/L | 1.273 ± 0.275 ΔΔ** mg/L |  | 
Nc1c(Br)cc(Br)cc1CN[C@H]1CC[C@H](O)CC1 [Ambroxol, ambroxol hydrochloride, reference compound] |  | 268 mg/kg | best effect |  | 1.418 ± 0.352 ΔΔ** mg/L |  | 
Nc1c(Br)cc(Br)cc1CN[C@H]1CC[C@H](SCCCO)CC1 [I13, trans 3-[4-(2-amino-3,5-dibromo-benzylamino)-cyclohexylsulfanyl]-propan-1-ol] | much higher | 507 mg/kg | strongest effect | 1.452 ± 0.351 ΔΔ** mg/L | 1.826 ± 0.334 ΔΔ** mg/L | relatively obvious dose-effect relationship | 
CC(=O)N[C@@H](CS)C(=O)O [Acetylcysteine, acetylcysteine, reference compound] |  |  |  |  | 1.532 ± 0.247 ΔΔ** mg/L |  | 
Cl.N [Ammonium chloride, ammonium chloride, reference compound] |  |  |  |  |  |  | 0.875 ± 0.208 ΔΔ** mg/L
